Results published in patent publication EP4782431A1 (Suzhou Merna Therapeutics Co. Ltd, priority 2023, dated 2025).

How the values were obtained:
Type in all cases: physicochemical
[1] = competitive suspension tests of crystal forms (XRPD)
Description: (§1) A 2θ scanning angle of the sample was 3°-40°, a scanning step size was 0.02°, and a scanning time per step was 0.12 s/step. An optical tube voltage and a current were 40 kV and 40 mA, respectively. During sample preparation, an appropriate amount of the sample was placed on a sample tray and flattened with a tool such as a glass slide to ensure a smooth and even surface.
Resulting suspensions were suspended at 5°C, 25°C, and 50°C for 3 days, respectively. The resulting suspensions were centrifuged, and solid portions were detected by XRPD.

[2] = stability of crystal forms (XRPD, HPLC, color)
Description: as §1
An Agilent 1260 infinityII binary pump was used for solubility and stability testing.
The stability of samples under these conditions was detected by XRPD and HPLC, and whether the samples had color changes was observed.
(§2) A certain amount of the crystal form C of the compound of formula (I) was weighed and placed in an open container at 25°C/92.5%RH for 1 week. A certain amount of the crystal form C of the compound of formula (I) was weighed and placed in a closed container at 60°C for 1 week. The stability of samples under these conditions was detected by XRPD and HPLC, and whether the samples had color changes was observed. Table 16 Stability test results of the crystal form C of the compound of formula (I)
as §2, with “form D” for “form C”, “Table 17” for “Table 16”
as §2, with “form E” for “form C”, “Table 18” for “Table 16”

[3] = stability of crystal forms (XRPD, HPLC, color); conditions: 25°C/92%RH open, 1 week
[4] = hygroscopicity by dynamic vapor sorption (DVS); conditions: for 1st adsorption Percentage of weight change / 1st desorption Percentage of weight change / 2nd adsorption Percentage of weight change / 2nd desorption Percentage of weight change: 40-0-95-0-40%RH, 240 min per step
Description: ProUmid SPSx-1µ Advance was used for analysis of a sample. The sample to be tested was approximately in an amount of 5-50 mg. A temperature in a test chamber was controlled at 25±1°C, a relative humidity cycle was […], a step size was 10%, an equilibrium time was 240 minutes per step, and mass data was recorded every 20 seconds.
A DVS cycle was 40-0-95-0-40%RH. XRPD detection was performed on samples after the DVS testing to determine whether crystal form transformation occurred.

## NC(=O)[C@H]1CCCc2c1[nH]c1ccc(Cl)cc21 [Crystal form F, (S)-6-chloro-2,3,4,9-tetrahydro-1H-carbazole-carboxamide]
[1]; isopropanol, isopropyl acetate, and acetonitrile, 5°C, 25°C, 50°C, 3 days
  crystal form after competitive suspension slurrying: converted into the crystal form F
[1]; temperature range of 5°C to 50°C
  relative stability of crystal forms: more stable than the crystal forms B and G
[2]; 60°C, closed, 1 week
  Color: No change
  Degradation (%): None
  Purity (%): 99.8%
[2]; Initial
  Purity (%): 99.8%
[3]
  Color: No change
  Degradation (%): None
  Purity (%): 99.8%
[4]; DVS at 25°C, Table 13
  Hygroscopicity Conclusion: No hygroscopicity
[4]; Relative humidity 0% at 25°C
  1st adsorption Percentage of weight change: 0.1%
  1st desorption Percentage of weight change: 0.1%
  2nd adsorption Percentage of weight change: 0.3%
  2nd desorption Percentage of weight change: 0.3%
[4]; Relative humidity 10% at 25°C
  1st adsorption Percentage of weight change: 0.2%
  1st desorption Percentage of weight change: 0.3%
  2nd adsorption Percentage of weight change: 0.2%
  2nd desorption Percentage of weight change: 0.3%
[4]; Relative humidity 20% at 25°C
  1st adsorption Percentage of weight change: 0.2%
  1st desorption Percentage of weight change: 0.1%
  2nd adsorption Percentage of weight change: 0.2%
  2nd desorption Percentage of weight change: 0.4%
[4]; Relative humidity 30% at 25°C
  1st adsorption Percentage of weight change: 0.1%
  1st desorption Percentage of weight change: 0.1%
  2nd adsorption Percentage of weight change: 0.0%
  2nd desorption Percentage of weight change: 0.1%
[4]; Relative humidity 40% at 25°C
  1st adsorption Percentage of weight change: 0.2%
  1st desorption Percentage of weight change: 0.2%
  2nd adsorption Percentage of weight change: 0.0%
  2nd desorption Percentage of weight change: 0.4%
[4]; Relative humidity 50% at 25°C
  1st adsorption Percentage of weight change: 0.2%
  2nd desorption Percentage of weight change: 0.2%
[4]; Relative humidity 60% at 25°C
  1st adsorption Percentage of weight change: 0.2%
  2nd desorption Percentage of weight change: 0.2%
[4]; Relative humidity 70% at 25°C
  1st adsorption Percentage of weight change: 0.2%
  2nd desorption Percentage of weight change: 0.2%
[4]; Relative humidity 80% at 25°C
  1st adsorption Percentage of weight change: 0.1%
  2nd desorption Percentage of weight change: 0.0%
[4]; Relative humidity 90% at 25°C
  1st adsorption Percentage of weight change: 0.3%
  2nd desorption Percentage of weight change: 0.1%
[4]; Relative humidity 95% at 25°C
  1st adsorption Percentage of weight change: 0.1%
  2nd desorption Percentage of weight change: 0.1%
[4]; after DVS cycle 40-0-95-0-40%RH at 25°C
  XRPD after DVS testing: Crystal form F
